# Measured values as given in US20190100517A1, “COMPOUNDS” (GlaxoSmithKline Intellectual Property Development Limited, priority 2015, published 2019).
# “And” between values parts separate entries of the source, which are not always exact repeats. Identical values can stand only once.
# Molecular target: human KMO (Homo sapiens, UniProt O15229)
# Experiment: KMO MS Rapidfire assay (RapidFire high-throughput mass spectrometry, Method 1 or Method 2)
# Experimental: KMO inhibition can be determined by MS Rapidfire assay performed on the human cloned enzyme as described herein.
# pFastbac1 GST-KMO was transposed into the baculovirus genome using the BAC-to-BAC technology (Invitrogen) and bacmid DNA was prepared and transfected into Spodoptera frugiperda (Sf9) cells using Cellfectin II (Invitrogen).
# A P1 virus stock was generated from a single clone and used to infect 3×1.5 L cultures of Sf9 cells in 3 L Corning Fernbach flasks. The Sf9 cells were grown in Hyclone SFX media (Thermo Scientific) to about 3×10^6 cells/ml and were infected at a nominal multiplicity of infection of 3. Cells were harvested after 48 hours and disrupted by blending in 50 mM HEPES, pH 7.4, 1 mM EDTA buffer containing protease inhibitors. A low speed spin (400 g) was used to remove cell debris, followed by a high speed spin (75 000 g) to pellet the membranes. The membranes were purified in a discontinuous sucrose density gradient by re-suspending in 10% (w/v) sucrose and layering over 40% (w/v) sucrose, both in the above buffer. This was centrifuged at 150 000 g and the purified membranes were taken from the interface, collected by centrifugation at 100 000 g, resuspended in buffer and aliquoted for storage at −80° C.
# 100 nL DMSO was dispensed into columns 6 and 18 for high and low controls, respectively, with prior inactivation of the enzyme in column 18 by pre-dispense of 30 μL of 0.5% (v/v) TFA.
# Conditions for the assay of human KMO using isolated KMO-membranes were 50 mM HEPES, pH 7.5, 2 mM DTT, 1 mM EDTA, 100 μM CHAPS, 200 μM NADPH, 10 μM Kynurenine and 8 μg/ml KMO-membranes in a total reaction volume of 10 μL.
# Assays were performed by initially dispensing 5 μL of a 2× Enzyme solution (16 μg/ml KMO-membranes in 50 mM HEPES, pH 7.5, 2 mM DTT, 2 mM EDTA, 200 μM CHAPS) into plates containing 100 nL compounds and incubating for 10 min at ambient temperature. Reactions were initiated by addition of 5 μL of 2× Substrate solution (400 μM NADPH, 20 μM Kynurenine in 50 mM HEPES, pH 7.5, 2 mM DTT) and incubated for 2 h at room temperature before quenching the reaction with 30 μL of 0.5% (v/v) TFA. Plates were centrifuged at 2500 rpm for 10 min before analysis. All additions were made using a Multidrop Combi dispenser (Thermo Fisher Scientific).
# Quenched assay plates were transferred to a high-throughput RapidFire200 integrated autosampler/solid-phase extraction (SPE) system (Agilent Technologies, Wakefield, Mass.). […] Analytes were then eluted into the mass spectrometer, in a 3 s elution cycle, using 80% (v/v) acetonitrile/water containing 0.1% (v/v) formic acid, and the cartridge was then equilibrated by washing with water containing 0.1% (v/v) formic acid for 500 ms. This gave a total cycle time of 7 s, enabling analysis of a 384-well plate in approximately 45 min.
# Both Kyn and 3-HK were detected using a Sciex AP14000 triple quadrupole mass spectrometer (Applied Biosystems, Concord, Ontario, Canada), equipped with an electrospray interface and operated in positive ion mode. […] The mass spectrometer used an ESI voltage of 5500 V and a source temperature of 600° C., with a dwell time of 50 ms for each transition.
# Individual MRM transitions were saved as text files and the extracted ion chromatograms were integrated and processed using the RapidFire® peak integration software (version 3.6).
# human KMO, sequence (O15229 whole entry): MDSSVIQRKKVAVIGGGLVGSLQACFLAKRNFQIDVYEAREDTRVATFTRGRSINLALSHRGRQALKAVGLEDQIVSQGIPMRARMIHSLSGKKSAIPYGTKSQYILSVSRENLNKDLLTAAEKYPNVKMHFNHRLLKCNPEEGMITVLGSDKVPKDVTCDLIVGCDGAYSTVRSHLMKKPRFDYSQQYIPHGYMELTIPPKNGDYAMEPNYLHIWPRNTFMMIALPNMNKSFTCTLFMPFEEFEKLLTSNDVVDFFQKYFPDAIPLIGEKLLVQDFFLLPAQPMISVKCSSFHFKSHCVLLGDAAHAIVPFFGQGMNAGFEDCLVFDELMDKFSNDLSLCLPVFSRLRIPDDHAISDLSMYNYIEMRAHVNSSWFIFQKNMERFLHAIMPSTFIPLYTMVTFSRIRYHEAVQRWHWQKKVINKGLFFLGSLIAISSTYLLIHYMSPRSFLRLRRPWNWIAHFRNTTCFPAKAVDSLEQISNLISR
row,IC50,SMILES
1,≤ 10 nM,"CCC(Oc1cc2sc(=O)n(CCC(=O)O)c2cc1Cl)c1ncc(C)cn1 (single isomer, unassigned) [Example 5, 3-{5-chloro-6-[1-(5-methylpyrimidin-2-yl)propoxy]-2-oxo-2,3-dihydro-1,3-benzothiazol-3-yl}propanoic acid]"
2,≤ 10 nM,"CCC(Oc1cc2sc(=O)n(CCC(=O)O)c2cc1Cl)c1ccc(C)cn1 (single isomer, unassigned) [Example 8, 3-{5-chloro-6-[1-(5-methylpyridin-2-yl)propoxy]-2-oxo-2,3-dihydro-1,3-benzothiazol-3-yl}propanoic acid]"
3,≤ 10 nM,"CC[C@@H](Oc1cc2sc(=O)n(CCC(=O)O)c2cc1Cl)c1ccc(Cl)cn1 (single isomer, unassigned) [Example 9, 3-{5-chloro-6-[1-(5-chloropyridin-2-yl)propoxy]-2-oxo-2,3-dihydro-1,3-benzothhiazol-3-yl}propanoic acid]"
4,≤ 10 nM,"CCC(Oc1cc2sc(=O)n(CCC(=O)O)c2cc1Cl)c1ncc(Cl)cn1 (single isomer, unassigned) [Example 11, 3-{5-chloro-6-[1-(5-chloropyrimidin-2-yl)propoxy]-2-oxo-2,3-dihydro-1,3-benzothiazol-3-yl}propanoic acid]"
5,≤ 10 nM,"CCC(Oc1cc2sc(=O)n(CCC(=O)O)c2cc1Cl)c1cccnn1 (single isomer, unassigned) [Example 14, 3-{5-chloro-2-oxo-6-[1-(pyridazin-3-yl)propoxy]-2,3-dihydro-1,3-benzothiazol-3-yl}propanoic acid]"
6,≤ 10 nM,"Cc1ccc(C(C)Oc2cc3sc(=O)n(CCC(=O)O)c3cc2Cl)nn1 (single isomer, unassigned) [Example 16, 3-{5-chloro-6-[1-(6-methylpyridazin-3-yl)ethoxy]-2-oxo-2,3-dihydro-1,3-benzothiazol-3-yl}propanoic acid]"
7,≤ 10 nM,"Cc1cnc(C(C)Oc2cc3sc(=O)n(CCC(=O)O)c3cc2Cl)nc1 (single isomer, unassigned) [Example 18, 3-{5-chloro-6-[1-(5-methylpyrimidin-2-yl)ethoxy]-2-oxo-2,3-dihydro-1,3-benzothiazol-3-yl}propanoic acid]"
8,≤ 10 nM,"CCC(Oc1cc2sc(=O)n(CCC(=O)O)c2cc1Cl)c1ccccn1 (single isomer, unassigned) [Example 19, 3-{5-chloro-2-oxo-6-[1-(pyridin-2-yl)propoxy]-2,3-dihydro-1,3-benzothiazol-3-yl}propanoic acid]"
9,≤ 10 nM,"CC(Oc1cc2sc(=O)n(CCC(=O)O)c2cc1Cl)c1ncc(Cl)cn1 (single isomer, unassigned) [Example 24, 3-{5-chloro-6-[1-(5-chloropyrimidin-2-yl)ethoxy]-2-oxo-2,3-dihydro-1,3-benzothiazol-3-yl}propanoic acid]"
10,≤ 10 nM,"CCc1ccc(C(C)Oc2cc3sc(=O)n(CCC(=O)O)c3cc2Cl)nc1 (single isomer, unassigned) [Example 25, 3-{5-chloro-6-[1-(5-ethylpyridin-2-yl)ethoxy]-2-oxo-2,3-dihydro-1,3-benzothiazol-3-yl}propanoic acid]"
11,≤ 10 nM,"CCC(Oc1cc2sc(=O)n(CCC(=O)O)c2cc1Cl)c1ncccn1 (single isomer, unassigned) [Example 29, 3-{5-chloro-2-oxo-6-[1-(pyrimidin-2-yl)propoxy]-2,3-dihydro-1,3-benzothiazol-3-yl}propanoic acid]"
12,≤ 10 nM,"CCC(Oc1cc2sc(=O)n(CCC(=O)O)c2cc1Cl)c1ccc(C)nn1 (single isomer, unassigned) [Example 32, 3-{5-chloro-6-[1-(6-methylpyridazin-3-yl)propoxy]-2-oxo-2,3-dihydro-1,3-benzothiazol-3-yl}propanoic acid]"
13,≤ 10 nM and 1.26 nM,"C[C@@H](Oc1cc2sc(=O)n(CCC(=O)O)c2cc1Cl)c1ccc(Cl)cn1 [Example 1, 3-(5-chloro-6-[(R)-1-(5-chloropyridin-2-yl)ethoxy]-2-oxobenzo[d]thiazol-3(2H)-yl)propanoic acid]"
14,≤ 10 nM,"Cc1cnc(COc2cc3sc(=O)n(CCC(=O)O)c3cc2Cl)nc1 [Example 4, 3-{5-chloro-6-[(5-methylpyrimidin-2-yl)methoxy]-2-oxo-2,3-dihydro-1,3-benzothiazol-3-yl}propanoic acid]"
15,≤ 10 nM,"O=C(O)CCn1c(=O)sc2cc(OCc3ccc(Cl)cn3)c(Cl)cc21 [Example 21, 3-{5-chloro-6-[(5-chloropyridin-2-yl)methoxy]-2-oxo-2,3-dihydro-1,3-benzothiazol-3-yl}propanoic acid]"
16,≤ 10 nM,"Cc1ccc(COc2cc3sc(=O)n(CCC(=O)O)c3cc2Cl)nn1 [Example 22, 3-{5-chloro-6-[(6-methylpyridazin-3-yl)methoxy]-2-oxo-2,3-dihydro-1,3-benzothiazol-3-yl}propanoic acid]"
17,≤ 10 nM,"O=C(O)CCn1c(=O)sc2cc(OCc3ncc(Cl)cn3)c(Cl)cc21 [Example 27, 3-{5-chloro-6-[(5-chloropyrimidin-2-yl)methoxy]-2-oxo-2,3-dihydro-1,3-benzothiazol-3-yl}propanoic acid]"
18,≤ 10 nM,"Cc1ccc(COc2cc3sc(=O)n(CCC(=O)O)c3cc2Cl)nc1 [Example 30, 3-{5-chloro-6-[(5-methylpyridin-2-yl)methoxy]-2-oxo-2,3-dihydro-1,3-benzothiazol-3-yl}propanoic acid]"
19,≤ 10 nM,"Cc1ccc([C@@H](C)Oc2cc3sc(=O)n(CCC(=O)O)c3cc2Cl)nc1 [Example 33, 3-{5-chloro-6-[(1R)-1-(5-methylpyridin-2-yl)ethoxy]-2-oxo-2,3-dihydro-1,3-benzothiazol-3-yl}propanoic acid]"
